Assay [1] deals with 16S ribosomal subunit RNA target. Kind of assay: Mass spectrometry based binding assay (FTICR), 16S. The procedure: In a typical experiment, 10 μL of an aqueous solution containing 100 mM ammonium acetate buffer, 2.5 or 5 μM of each RNA, and 33% isopropyl alcohol (to aid ion desolvation) was prepared with different concentrations of each ligand or ligand mixture. Samples were introduced into the electrospray ionization source (negative ionization mode) at 1 μL/min and ions were stored for 1 sec in an RF-only hexapole following desolvation. The abundances were integrated from the respective ions for free RNA and the ligand-RNA complex. The primary (1:1 RNA:ligand) and secondary (1:2 complex, if observed). […] The peak ratios were measured at each concentration, then a plot of complex/free RNA versus concentration of ligand added was fitted to a second (or higher) order binding polynomial to determine the KD.

Assay [2] has as its system E. coli S30 bacterial extract (pBestLuc luciferase reporter). Kind of assay: Coupled bacterial transcription/translation assay. The class given is biochemical. Conditions: read-out: Trans/trans IC50. The procedure:
The DNA template, pBestLuc™ (Promega), is a plasmid containing a reporter gene for firefly luciferase fused to a strong tac promoter and ribosome binding site. Messenger RNA from 1 μg pBestLuc is transcribed and translated in E. coli S30 bacterial extract in the presence or absence of test compound. Compounds are tested in a black 96 well microtiter plate with an assay volume of 35 μL. […] The transcription/translation reaction is incubated for 35 minutes at 37° C. followed by detection of functional luciferase with the addition of 30 μL LucLite™ (Packard). Light output is quantitated on a Packard TopCount.

For another assay, the system named is E. Coli. The assay is described as follows: MIC, E. Coli.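 Note: minimum inhibitory concentration determined in duplicate in 96-well plates, compounds given in 4% aqueous DMSO, with ampicillin and tetracycline as positive controls.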 It is filed as cell-based. Conditions: 24 h, range between growth and complete inhibition.
A further assay has as its system S. Aureus. Kind of assay: MIC, S. Aureus. The class given is cell-based. As to conditions: 24 h, range between growth and complete inhibition.
Another assay concerns E. coli ATCC (25922). The assay is described as follows: MIC, E. coli ATCC 25922. The class given is cell-based. As to conditions: 24 h.
The test system of the next assay is S. aureus ATCC(13709). The assay is described as follows: MIC, S. aureus ATCC 13709. It is filed as cell-based. Conditions: 24 h.
A further assay concerns P. aurginosa ATCC(25416). The assay is described as follows: MIC, P. aurginosa ATCC 25416. It is filed as cell-based. As to conditions: 24 h.
The subject of another assay is P. aurginosa ATCC(29248). The assay is described as follows: MIC, P. aurginosa ATCC 29248. It is filed as cell-based. Conditions: 24 h.
In assay [3] the test system is K. pneumoniae ATCC (10031). Kind of assay: MIC, K. pneumoniae ATCC 10031. It is filed as cell-based. Conditions: 24 h.
The test system of a further assay is P. vulgaris ATCC(8427). As to conditions: 24 h. The procedure: The MIC assays are carried out in 150 μL volume in duplicate in 96-well clear flat-bottom plates. The bacterial suspension from an overnight culture growth in appropriate medium is added to a solution of test compound in 4% DMSO in water. Final bacterial inoculum is approximately 10^5-10^6 CFU/well. […] Both ampicillin and tetracycline are used as antibiotic-positive controls in each screening assay for S. pyogenes, E. coli imp-, E. coli, S. aureus, E. faecalis, K. pneumoniae and P. vulgaris. Ciprofloxacin is used as an antibiotic positive control in each screening assay for P. aeruginosa.
The following compounds were prepared using methods illustrated in the previous examples. The compounds were also examined in standard bacterial assays against E. Coli, S. Aureus, P. aurginosa, K. pneumoniae, P. vulgaris, and A. baumannii to determine activities. Each of the bacterial cultures that are available from ATCC (www.atcc.org) is identified by its ATCC number. A. baumannii is gentamicin sensitive Acinetobacter baumannii #2 from Walter Reed.

Assay [4] has as its system gentamicin sensitive Acinetobacter baumannii #2 from Walter Reed. Kind of assay: MIC, A. baumannii WReed 2. The class given is cell-based. As to conditions: 24 h.

Each structure is given as a SMILES string.

One may read the Kd as the equilibrium constant for the complex coming apart. Lower therefore signals tighter binding. The molecule `NCC1OC(OC2C(CO)OC(OC3C(O)C(N)CC(N)C3OC3OC(CO)C(O)C(O)C3N)C2OCCNc2cccnc2)C(N)C(O)C1O` (centres unmarked) [IBIS00560798] gave a Kd in [1] of 550 nM. In addition, the IC50 in [2] turned out to be 80 nM. In the assay on E. Coli, the “MIC E. Coli.” value was 3 to 6 µM. For the same molecule, the “MIC S. Aureus” value with S. Aureus is listed as 0.6-1^ μM.
Take `NCC1OC(OC2C(CO)OC(OC3C(O)C(N)CC(N)C3OC3OC(CO)C(O)C(O)C3N)C2OCCN(CCCc2ccccc2)CCc2ccccc2)C(N)C(O)C1O` (centres unmarked) [IBIS00561969]: in the assay on E. coli ATCC (25922), the “MIC E. coli ATCC (25922)” value was in the range of 10 to 20 µM. In the assay with S. aureus ATCC(13709), the “MIC S. aureus ATCC(13709)” value lay in the range of 0.6 to 1.2 µM. In addition, the “MIC P. aurginosa ATCC(25416)” value in the assay with P. aurginosa ATCC(25416) lay in the range of 10 to 20 µM. The “MIC P. aurginosa ATCC(29248)” value against P. aurginosa ATCC(29248) is above 40 µM. Also, the “MIC K. pneumoniae ATCC (10031)” value in [3] lay within 2.5 to 5.0 µM. For the same molecule, the “MIC P. vulgaris ATCC(8427)” value in the assay with P. vulgaris ATCC(8427) fell in the range of 10 to 20 µM. Further, the “MIC A. baumannii WReed 2” value in assay [4] lay within 10 to 20 µM.

These data come from patent US7943749B2, “Antimicrobial 2-deoxystreptamine compounds” (Isis Pharmaceuticals, Inc., priority 2004, dated 2011).
